“And” between values parts separate entries of the source, which are not always exact repeats. Identical values can stand only once.
Key:
Dengue virus (EDEN-4) = conditions: cited from earlier work
Syrian hamsters = experiment: Oral toxicity of solid dispersion; assay type: in vivo; conditions: per pure ivermectin, FORMULA I compound per Example 1 No 2 (apple pectin 1:5)
[1] = standard tablet form, for 5 days; cited from earlier work
Pseudorabies virus = conditions: estimated; read-out: est. EC50; cited from earlier work
[2] = system: Influenza VLPs (avian influenza A); conditions: 10 μM; cited from earlier work
Dengue virus (EDEN-3) = conditions: cited from earlier work
Caco-2 cell line = experiment: Permeability through a monolayer of Caco-2 cells; conditions: bottom of Transwell well, 3 μM (per pure IVM) in HBSS on top
SARS-CoV-2 = conditions: in vitro, inhibition of replication; cited from earlier work
Dengue virus (NGC) = conditions: cited from earlier work
West Nile virus (NY99) = conditions: cited from earlier work
[3] = Ivermectin concentration in the blood plasma of cattle after oral administration; assay type: in vivo; conditions: oral 600 μg/kg (per pure IVM)
Description: Cattle were divided into 2 groups of 1 animals each. Free Ivermectin (IVM) and compound of FORMULA I were orally administered to starving cattle. Blood samples were withdrawn from the jugular vein at appropriate time intervals after administration (0, 4, 20 h).
Fluorescence detection was set at an excitation and emission wavelength of 365 and 475 nm, respectively. The mobile phase consisted of acetonitrile, methanol and distilled water (50:45:5, v/v/v), running through the column at a flow rate of 1.5 ml/minute. The chromatographic analysis was operated at 25° C. Sample preparation (100 μl plasma) was done by a single stepprotein precipitation with acetonitrile, followed by derivatization with 100 μl of N-methylimidazole solution in acetonitrile (1:1, v/v) and 150 μl of trifluoroacetic anhydrous solution in acetonitrile (1:2, v/v). Calibration curve over the concentration range of 20-8,000 ng/ml plasma was linear with correlation coefficient better than 0.995.
All the blood samples were centrifuged at 3000 rpm for 15 min to obtain […]. Cattle plasma samples (100 μL each) were placed in 1.5 mL Eppendorf tubes, and then the samples underwent protein precipitation. The samples were vortexed for 1 min and centrifuged at 13,400 rpm for 10 min 20 μL of the supernatant was injected into the HPLC.

[4] = system: Zika virus (Asian/Cook Islands); conditions: cited from earlier work
Adenovirus (HAdV-C5) = conditions: cited from earlier work
West Nile virus (MRM61C) = conditions: cited from earlier work
[5] = system: Hendra (Hendra virus/Australia/Horse); conditions: estimated; read-out: est. EC50; cited from earlier work
Dengue virus (EDEN-2) = conditions: cited from earlier work

CCC(C)C1OC2(CCC1C)CC1CC(CC=C(C)C(OC3CC(OC)C(OC4CC(OC)C(O)C(C)O4)C(C)O3)C(C)C=CC=C3COC4C(O)C(C)=CC(C(=O)O1)C34O)O2 (centres unmarked) [ivermectin, Ivermectin]
EC50 (Dengue virus (EDEN-4)): 1900 nM | LD50 (Syrian hamsters): 62 mg/kg | lung Cmax [1]: 400 to 900 nM | EC50 (Pseudorabies virus): ~800 nM | Inhibition [2]: 10 μM total inhibition | EC50 (Dengue virus (EDEN-3)): 1700 nM | Concentrartion of IVM (Caco-2 cell line; 20 min, FORMULA I compound per Example 1 No 2 (apple pectin 1:5)): 50 ng/mL | Concentrartion of IVM (Caco-2 cell line; 40 min, FORMULA I compound per Example 1 No 2): 90 ng/mL | Concentrartion of IVM (Caco-2 cell line; 60 min, FORMULA I compound per Example 1 No 2): 150 ng/mL | Concentrartion of IVM (Caco-2 cell line; 80 min, FORMULA I compound per Example 1 No 2): 190 ng/mL | Concentrartion of IVM (Caco-2 cell line; 100 min, FORMULA I compound per Example 1 No 2): 210 ng/mL | Concentrartion of IVM (Caco-2 cell line; 120 min, FORMULA I compound per Example 1 No 2): 250 ng/mL | EC50 (SARS-CoV-2): 2400 nM and 2200 nM and 2800 nM | EC90 (SARS-CoV-2): 5000 nM | Inhibition (Dengue virus (NGC); 50 μM): total inhibition | EC50 (Dengue virus (NGC)): 400 nM and 600 nM | EC50 (West Nile virus (NY99)): 4000 nM | C1, 0 h (ivermectin concentration in plasma) ([3]; 0 h, FORMULA I compound per Example 1 No 1 (polyvinylpyrrolidone 1:10), IVM = milled free ivermectin): 0 ± 0.15 ng/mL | C2, 4 h (ivermectin concentration in plasma) ([3]; 4 h, FORMULA I compound per Example 1 No 1): 307.3 ± 46.1 ng/mL | C3, 20 h (ivermectin concentration in plasma) ([3]; 20 h, FORMULA I compound per Example 1 No 1): 104.4 ± 15.6 ng/mL | Cmax ([3]; FORMULA I compound per Example 1 No 1): 350 ± 50 nM | EC50 [4]: 1300 nM and 1600 nM | EC50 (Adenovirus (HAdV-C5)): 2500 nM | EC50 (West Nile virus (MRM61C)): 1000 nM and 500 nM | EC50 [5]: ~2000 nM | EC50 (Dengue virus (EDEN-2)): 2100 nM and 1700 nM

Source: patent US20250213601A1 (priority 2022, published 2025)
